# Columns and labels:
# Assay type in all cases: biochemical
# [1] = system: panel of 44 human kinases; experiment: Kinase selectivity panel at 5 μM, Invitrogen SelectScreen; details: includes all nine Src-family kinases
# Description: (§1) Src IC50 determinations and single-point inhibition measurements were performed using Invitrogen's Z′-LYTE Tyr 02 assay kit according to the manufacturer's protocols. All kinase assays were performed at ATP concentrations near KM,ATP values, except where noted otherwise. Active human Src kinase was obtained from Millipore. For kinome profiling and IC50 determinations against non-Src kinases, compounds were submitted to Invitrogen's SelectScreen Kinase Profiling Service.
# [2] = target: AKT1 (PKB alpha) (Homo sapiens, UniProt P31749); experiment: SelectScreen kinase profiling; details: 5 μM
# Description: as §1
# [3] = target: AMPK A1/B1/G1 (Homo sapiens, UniProt Q13131); experiment: SelectScreen kinase profiling; details: 5 μM
# Description: as §1
# [4] = target: T1, AURKA (Aurora A) (Homo sapiens, UniProt O14965); experiment: SelectScreen kinase profiling; details: AURKA (Aurora A); 5 μM
# T1 sequence (O14965 1-403): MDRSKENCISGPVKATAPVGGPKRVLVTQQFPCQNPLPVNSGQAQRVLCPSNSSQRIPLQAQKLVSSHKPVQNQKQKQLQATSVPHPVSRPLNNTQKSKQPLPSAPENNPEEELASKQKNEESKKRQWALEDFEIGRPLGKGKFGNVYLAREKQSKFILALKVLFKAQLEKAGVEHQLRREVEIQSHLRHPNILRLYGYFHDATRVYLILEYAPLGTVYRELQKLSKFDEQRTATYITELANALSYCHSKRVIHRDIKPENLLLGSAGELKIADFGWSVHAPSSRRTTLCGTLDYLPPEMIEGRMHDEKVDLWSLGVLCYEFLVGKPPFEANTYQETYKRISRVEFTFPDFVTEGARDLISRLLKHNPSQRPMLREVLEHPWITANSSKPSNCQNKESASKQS
# Description: as §1
# [5] = target: AURKC (Aurora C) (Homo sapiens, UniProt Q9UQB9); experiment: SelectScreen kinase profiling; details: 5 μM
# Description: as §1
# [6] = target: CHEK1 (CHK1) (Homo sapiens, UniProt O14757); experiment: SelectScreen kinase profiling; details: 5 μM
# Description: as §1
# [7] = target: ERBB4 (HER4) (Homo sapiens, UniProt Q15303); experiment: SelectScreen kinase profiling; details: 5 μM
# Description: as §1
# [8] = target: FGR (Homo sapiens, UniProt P09769); experiment: SelectScreen kinase profiling; details: FGR; 5 μM
# Description: as §1
# [9] = target: FRK (PTK5) (Homo sapiens, UniProt P42685); experiment: SelectScreen kinase profiling; details: 5 μM
# Description: as §1
# [10] = target: FYN (Homo sapiens, UniProt P06241); experiment: SelectScreen kinase profiling; details: FYN; 5 μM
# Description: as §1
# [11] = target: GSK3B (GSK3 beta) (Homo sapiens, UniProt P49841); experiment: SelectScreen kinase profiling; details: 5 μM
# Description: as §1
# [12] = target: HCK (Homo sapiens, UniProt P08631); experiment: SelectScreen kinase profiling; details: HCK; 5 μM
# Description: as §1
# [13] = target: JAK3 (Homo sapiens, UniProt P52333); experiment: SelectScreen kinase profiling; details: 5 μM
# Description: as §1
# [14] = target: LCK (Homo sapiens, UniProt P06239); experiment: SelectScreen kinase profiling; details: 5 μM
# Description: as §1
# [15] = target: MAP2K1 (MEK1) (Homo sapiens, UniProt Q02750); experiment: SelectScreen kinase profiling; details: 5 μM
# Description: as §1
# [16] = target: MAP4K4 (HGK) (Homo sapiens, UniProt O95819); experiment: SelectScreen kinase profiling; details: 5 μM
# Description: as §1
# [17] = target: MAPK14 (p38 alpha) (Homo sapiens, UniProt Q16539); experiment: SelectScreen kinase profiling; details: 5 μM
# Description: as §1
# [18] = target: PAK4 (Homo sapiens, UniProt O96013); experiment: SelectScreen kinase profiling; details: 5 μM
# Description: as §1
# [19] = target: T2, Src kinase domain (chicken c-Src residues 251-533) (Gallus gallus, UniProt P00523); experiment: Continuous spectrophotometric kinase activity assay; details: Src kinase domain
# T2 construct: chicken c-Src (residues 251-533 and residues 83-533); made in house
# [20] = target: Src kinase (Homo sapiens, UniProt P12931); experiment: Z'-LYTE kinase assay (Invitrogen), Src; parameters: full-length kinase in the Z-LYTE assay vs. kinase domain in the current study; purchased Millipore
# Procedure, shortened: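 Human Src activity measured by FRET-based Z′-LYTE Tyr 02 peptide assay at ATP near KM,ATP unless noted. IC50s and single-point inhibition determined over varying macrocycle concentrations. Non-Src kinases tested via a commercial profiling service.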
# Sequence of Src kinase (P12931 whole entry, the tested form may be a part): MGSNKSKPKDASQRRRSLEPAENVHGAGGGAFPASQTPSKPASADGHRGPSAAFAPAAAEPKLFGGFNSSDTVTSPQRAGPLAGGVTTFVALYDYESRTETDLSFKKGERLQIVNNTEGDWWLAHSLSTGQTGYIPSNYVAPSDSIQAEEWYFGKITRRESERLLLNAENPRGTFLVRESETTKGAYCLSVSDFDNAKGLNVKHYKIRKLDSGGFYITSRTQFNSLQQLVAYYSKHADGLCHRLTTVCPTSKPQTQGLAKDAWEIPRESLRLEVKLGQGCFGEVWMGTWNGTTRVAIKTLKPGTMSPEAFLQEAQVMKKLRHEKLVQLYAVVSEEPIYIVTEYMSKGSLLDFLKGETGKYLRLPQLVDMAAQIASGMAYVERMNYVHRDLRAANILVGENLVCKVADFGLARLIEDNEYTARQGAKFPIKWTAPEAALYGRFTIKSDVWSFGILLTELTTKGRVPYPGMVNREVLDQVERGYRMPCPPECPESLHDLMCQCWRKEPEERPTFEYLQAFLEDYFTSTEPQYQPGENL
# Sequence of CHEK1 (CHK1) (O14757 whole entry): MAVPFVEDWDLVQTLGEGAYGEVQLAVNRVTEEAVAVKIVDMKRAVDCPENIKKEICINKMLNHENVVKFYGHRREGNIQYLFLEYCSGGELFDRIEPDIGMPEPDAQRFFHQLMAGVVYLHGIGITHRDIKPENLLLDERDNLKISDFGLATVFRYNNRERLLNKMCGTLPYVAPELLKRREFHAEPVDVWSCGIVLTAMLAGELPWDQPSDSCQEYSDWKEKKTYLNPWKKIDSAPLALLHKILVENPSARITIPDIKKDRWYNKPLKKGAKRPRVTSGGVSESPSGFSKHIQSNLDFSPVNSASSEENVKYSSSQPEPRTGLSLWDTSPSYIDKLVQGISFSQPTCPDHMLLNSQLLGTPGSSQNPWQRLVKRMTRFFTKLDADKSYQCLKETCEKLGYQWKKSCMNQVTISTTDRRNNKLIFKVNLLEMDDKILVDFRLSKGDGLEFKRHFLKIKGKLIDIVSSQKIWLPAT
# Sequence of LCK (P06239 whole entry): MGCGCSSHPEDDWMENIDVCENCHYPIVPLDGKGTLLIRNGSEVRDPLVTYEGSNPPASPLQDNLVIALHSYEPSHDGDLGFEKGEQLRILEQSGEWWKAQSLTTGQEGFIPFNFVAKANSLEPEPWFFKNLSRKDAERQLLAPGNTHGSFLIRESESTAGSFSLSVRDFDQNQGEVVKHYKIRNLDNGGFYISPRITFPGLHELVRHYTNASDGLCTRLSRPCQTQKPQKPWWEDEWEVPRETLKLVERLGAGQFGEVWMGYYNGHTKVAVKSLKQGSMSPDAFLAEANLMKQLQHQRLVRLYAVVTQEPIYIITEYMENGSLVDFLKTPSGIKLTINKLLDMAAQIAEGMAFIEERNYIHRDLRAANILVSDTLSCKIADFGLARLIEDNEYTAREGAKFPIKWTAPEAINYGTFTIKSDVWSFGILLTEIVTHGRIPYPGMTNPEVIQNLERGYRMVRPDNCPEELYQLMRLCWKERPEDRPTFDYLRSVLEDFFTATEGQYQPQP
# Sequence of JAK3 (P52333 whole entry): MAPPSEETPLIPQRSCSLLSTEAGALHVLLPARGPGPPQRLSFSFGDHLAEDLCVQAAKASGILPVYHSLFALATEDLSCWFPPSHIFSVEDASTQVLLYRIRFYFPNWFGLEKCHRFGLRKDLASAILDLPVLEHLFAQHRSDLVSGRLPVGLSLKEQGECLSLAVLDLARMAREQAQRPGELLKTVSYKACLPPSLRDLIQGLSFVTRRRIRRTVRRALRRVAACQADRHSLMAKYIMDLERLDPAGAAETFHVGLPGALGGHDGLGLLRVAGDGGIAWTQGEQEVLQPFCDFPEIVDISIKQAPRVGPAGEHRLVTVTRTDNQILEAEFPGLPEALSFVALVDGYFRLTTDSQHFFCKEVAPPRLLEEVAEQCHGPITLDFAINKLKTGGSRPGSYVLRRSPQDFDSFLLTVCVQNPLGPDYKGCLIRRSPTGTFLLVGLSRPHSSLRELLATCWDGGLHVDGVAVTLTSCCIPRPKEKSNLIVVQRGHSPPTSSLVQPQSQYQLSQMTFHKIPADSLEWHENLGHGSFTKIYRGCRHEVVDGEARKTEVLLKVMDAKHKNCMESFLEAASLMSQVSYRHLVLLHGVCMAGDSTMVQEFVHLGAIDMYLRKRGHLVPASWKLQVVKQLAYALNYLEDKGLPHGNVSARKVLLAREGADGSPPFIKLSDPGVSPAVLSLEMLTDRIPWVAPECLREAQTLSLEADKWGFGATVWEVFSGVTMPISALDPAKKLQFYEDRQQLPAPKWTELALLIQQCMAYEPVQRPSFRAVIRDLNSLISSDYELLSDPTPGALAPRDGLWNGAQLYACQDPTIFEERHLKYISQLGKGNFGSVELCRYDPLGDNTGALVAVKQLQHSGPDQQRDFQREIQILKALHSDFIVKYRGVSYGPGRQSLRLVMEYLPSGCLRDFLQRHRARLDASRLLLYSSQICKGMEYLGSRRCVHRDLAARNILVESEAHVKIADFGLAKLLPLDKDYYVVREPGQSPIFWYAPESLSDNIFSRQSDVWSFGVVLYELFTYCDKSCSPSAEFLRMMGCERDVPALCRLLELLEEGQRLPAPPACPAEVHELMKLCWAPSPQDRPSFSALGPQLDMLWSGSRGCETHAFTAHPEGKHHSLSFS
# Sequence of MAPK14 (p38 alpha) (Q16539 whole entry): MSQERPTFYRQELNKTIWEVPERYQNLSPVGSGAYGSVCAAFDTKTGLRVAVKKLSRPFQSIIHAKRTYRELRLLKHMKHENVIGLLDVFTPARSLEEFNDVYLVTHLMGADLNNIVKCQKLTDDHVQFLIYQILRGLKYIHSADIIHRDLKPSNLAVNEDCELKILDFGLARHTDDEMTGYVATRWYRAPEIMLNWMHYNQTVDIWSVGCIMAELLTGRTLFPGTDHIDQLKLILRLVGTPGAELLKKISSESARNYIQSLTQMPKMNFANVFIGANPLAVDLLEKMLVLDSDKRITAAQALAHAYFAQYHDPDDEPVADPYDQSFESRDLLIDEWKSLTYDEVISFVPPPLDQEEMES
# Sequence of HCK (P08631 whole entry): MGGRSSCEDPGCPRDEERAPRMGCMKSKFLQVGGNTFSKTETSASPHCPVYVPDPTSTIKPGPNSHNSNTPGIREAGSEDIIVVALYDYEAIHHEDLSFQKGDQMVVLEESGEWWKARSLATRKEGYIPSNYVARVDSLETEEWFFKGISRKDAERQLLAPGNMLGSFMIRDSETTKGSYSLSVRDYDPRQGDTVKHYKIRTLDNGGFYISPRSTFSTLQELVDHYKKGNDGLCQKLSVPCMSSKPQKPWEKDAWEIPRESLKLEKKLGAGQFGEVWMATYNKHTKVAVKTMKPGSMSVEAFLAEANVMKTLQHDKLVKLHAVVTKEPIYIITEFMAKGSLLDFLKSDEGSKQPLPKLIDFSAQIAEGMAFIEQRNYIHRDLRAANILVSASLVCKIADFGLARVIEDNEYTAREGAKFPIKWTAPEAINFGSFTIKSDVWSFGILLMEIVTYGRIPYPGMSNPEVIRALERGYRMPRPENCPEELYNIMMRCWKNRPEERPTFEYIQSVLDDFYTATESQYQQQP
# Sequence of PAK4 (O96013 whole entry): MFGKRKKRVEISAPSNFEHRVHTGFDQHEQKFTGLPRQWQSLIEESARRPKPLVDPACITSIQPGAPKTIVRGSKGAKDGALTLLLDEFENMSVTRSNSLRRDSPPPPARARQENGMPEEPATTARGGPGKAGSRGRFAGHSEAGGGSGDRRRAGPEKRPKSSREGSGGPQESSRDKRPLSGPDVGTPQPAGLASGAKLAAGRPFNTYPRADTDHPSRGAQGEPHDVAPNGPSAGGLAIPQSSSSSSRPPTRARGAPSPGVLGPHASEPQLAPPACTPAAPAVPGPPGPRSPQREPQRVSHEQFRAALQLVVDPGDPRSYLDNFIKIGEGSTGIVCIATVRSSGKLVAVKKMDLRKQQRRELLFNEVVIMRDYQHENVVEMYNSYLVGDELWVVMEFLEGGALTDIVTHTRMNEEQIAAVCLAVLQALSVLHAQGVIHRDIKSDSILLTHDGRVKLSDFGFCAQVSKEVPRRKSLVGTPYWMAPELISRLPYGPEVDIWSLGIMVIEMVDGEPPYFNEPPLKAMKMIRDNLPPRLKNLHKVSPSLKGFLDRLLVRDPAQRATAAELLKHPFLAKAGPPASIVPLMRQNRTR
# Sequence of AKT1 (PKB alpha) (P31749 whole entry): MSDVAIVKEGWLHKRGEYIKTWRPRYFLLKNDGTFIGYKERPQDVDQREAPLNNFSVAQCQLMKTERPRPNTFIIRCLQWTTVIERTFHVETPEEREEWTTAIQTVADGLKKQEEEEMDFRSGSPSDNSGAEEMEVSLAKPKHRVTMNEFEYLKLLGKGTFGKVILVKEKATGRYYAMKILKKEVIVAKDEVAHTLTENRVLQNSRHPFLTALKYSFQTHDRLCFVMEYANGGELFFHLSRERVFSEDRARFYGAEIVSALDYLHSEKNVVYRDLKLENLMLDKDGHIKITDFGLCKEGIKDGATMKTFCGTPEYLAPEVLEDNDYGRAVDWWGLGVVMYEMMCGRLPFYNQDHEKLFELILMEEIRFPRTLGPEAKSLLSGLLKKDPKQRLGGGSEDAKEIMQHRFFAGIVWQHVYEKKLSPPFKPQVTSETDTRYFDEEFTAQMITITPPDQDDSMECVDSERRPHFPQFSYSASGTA
# Sequence of GSK3B (GSK3 beta) (P49841 whole entry): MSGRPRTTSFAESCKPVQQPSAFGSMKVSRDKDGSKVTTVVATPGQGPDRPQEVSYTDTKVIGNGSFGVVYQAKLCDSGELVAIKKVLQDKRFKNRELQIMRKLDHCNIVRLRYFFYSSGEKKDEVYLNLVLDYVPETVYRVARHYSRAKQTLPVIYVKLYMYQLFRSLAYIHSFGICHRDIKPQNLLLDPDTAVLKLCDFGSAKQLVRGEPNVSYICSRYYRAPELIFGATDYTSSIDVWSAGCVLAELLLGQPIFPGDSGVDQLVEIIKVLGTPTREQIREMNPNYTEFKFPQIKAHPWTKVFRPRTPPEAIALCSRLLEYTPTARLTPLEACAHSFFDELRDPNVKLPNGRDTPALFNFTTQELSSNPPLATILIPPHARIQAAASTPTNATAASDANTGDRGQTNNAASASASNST
smiles,measurement,setting,value
NC(=O)[C@@H]1CCCNC(=O)[C@H](Cc2ccc([N+](=O)[O-])cc2)NC(=O)[C@H](Cc2ccco2)NC(=O)[C@H](CC2CC2)NC(=O)/C=C/C(=O)N1 [trans-A10-B1-C5-D6],off-target inhibition in kinase panel (in words),[1],no significant off-target inhibition
same,% inhibition,[2],−7%
same,% inhibition,[3],−1%
same,% inhibition,[4],10%
same,% inhibition,[5],2%
same,% inhibition,[6],−15%
same,% inhibition,[7],4%
same,% inhibition,[8],13%
same,% inhibition,[9],15%
same,% inhibition,[10],−1%
same,% inhibition,[11],−6%
same,% inhibition,[12],9%
same,% inhibition,[13],−7%
same,% inhibition,[14],17%
same,% inhibition,[15],−6%
same,% inhibition,[16],−1%
same,% inhibition,[17],32%
same,% inhibition,[18],−2%
same,IC50,"[19]; 5 μM ATP, 100 μM Src optimal peptide",11 µM
same,IC50,"[19]; 250 μM ATP, 300 μM Src optimal peptide",21 µM
same,% inhibition,"[20]; SRC, 5 μM, data from FIG. 8 and Table 6",86%
same,mode of Src inhibition,[20]; apparent KM for ATP versus macrocycle concentration,ATP-competitive

# — patent US8975232B2, “Macrocyclic kinase inhibitors and uses thereof” (President and Fellows of Harvard College, priority 2010, dated 2015)
